Data reported in patent US20230117034A1, “PYRAZOLOTRIAZINES” (Bayer Aktiengesellschaft, priority 2019, published 2023).

How the values were obtained:
Type in all cases: cell-based
[1] = test system: CAL-120, human breast adenocarcinoma cells; test: Proliferation assay CAL-120 (crystal violet, 4 days); conditions: Homo sapiens, CAL-120, 96 h, CAL-120 cells, median, read-out: Prolif-CAL-120, IC50-[mol/l] (median)
Protocol: (§1) Human tumour cells were originally obtained from the American Type Culture Collection (ATCC), or from the Deutsche Sammlung von Mikroorganismen und Zellkulturen (DSMZ, German Collection of Microorganisms and Cell Cultures). Cultivated tumour cells (CAL-120, human breast adenocarcinoma cells, DSMZ ACC-459; MDA-MB-231, human breast cancer cells, ATCC HTB-26) were plated at a density of 4,000 cells/well in a 96-well multititer plate in 200 microL of their respective growth medium supplemented 10% fetal calf serum. After 24 hours, the cells of one plate (zero-point plate) were stained with crystal violet (see below), while the medium of the other plates was supplemented with the test substances in various concentrations (0 micromol/L, as well as in the range of 0.01-10 micromol/L; the final concentration of the solvent dimethyl sulfoxide was adjusted to 0.1%) using a Tecan HP D300 Digital Dispenser. The cells were incubated for 4 days in the presence of test substances. Cell proliferation was determined by staining the cells with crystal violet: the cells were fixed by adding 20 microL/measuring point of an 11% glutaric aldehyde solution for 15 minutes at room temperature. After three washing cycles of the fixed cells with water, the plates were dried at room temperature. The cells were stained by adding 100 microL/measuring point of a 0.1% crystal violet solution (pH 3.0). After three washing cycles of the stained cells with water, the plates were dried at room temperature. The dye was dissolved by adding 100 microL/measuring point of a 10% acetic acid solution. The extinction was determined by photometry at a wavelength of 595 nm. The change of cell number, in percent, was calculated by normalization of the measured values to the extinction values of the zero-point plate (=0%) and the extinction of the untreated (0 μM) cells (=100%). The IC50 values (inhibitory concentration at 50% of maximal effect) were determined by means of a 4 parameter fit.

[2] = molecular target: T1, CDK12 (nuclear staining in CAL-120 cells) (Homo sapiens, UniProt Q9NYV4); test: CDK12 nuclear protein level: immunofluorescence/high content analysis (CAL-120); conditions: for DC50: CAL-120 cells, 24 h, immunofluorescence, 50% reduction of nuclear CDK12 staining intensity, median, read-out: CDK12 degradation IF, DC50- [mol/l] (median); for (IC50 CDK12 high ATP) to (Degradation DC50 CDK12) ratio: ratio of IC50 CDK12 high ATP kinase assay to DC50 CDK12 degradation (IF, CAL-120)
T1 construct: endogenous in cells; host or cells: CAL-120 human breast cancer cells (DSMZ ACC 459)
T1 sequence (Q9NYV4 whole entry): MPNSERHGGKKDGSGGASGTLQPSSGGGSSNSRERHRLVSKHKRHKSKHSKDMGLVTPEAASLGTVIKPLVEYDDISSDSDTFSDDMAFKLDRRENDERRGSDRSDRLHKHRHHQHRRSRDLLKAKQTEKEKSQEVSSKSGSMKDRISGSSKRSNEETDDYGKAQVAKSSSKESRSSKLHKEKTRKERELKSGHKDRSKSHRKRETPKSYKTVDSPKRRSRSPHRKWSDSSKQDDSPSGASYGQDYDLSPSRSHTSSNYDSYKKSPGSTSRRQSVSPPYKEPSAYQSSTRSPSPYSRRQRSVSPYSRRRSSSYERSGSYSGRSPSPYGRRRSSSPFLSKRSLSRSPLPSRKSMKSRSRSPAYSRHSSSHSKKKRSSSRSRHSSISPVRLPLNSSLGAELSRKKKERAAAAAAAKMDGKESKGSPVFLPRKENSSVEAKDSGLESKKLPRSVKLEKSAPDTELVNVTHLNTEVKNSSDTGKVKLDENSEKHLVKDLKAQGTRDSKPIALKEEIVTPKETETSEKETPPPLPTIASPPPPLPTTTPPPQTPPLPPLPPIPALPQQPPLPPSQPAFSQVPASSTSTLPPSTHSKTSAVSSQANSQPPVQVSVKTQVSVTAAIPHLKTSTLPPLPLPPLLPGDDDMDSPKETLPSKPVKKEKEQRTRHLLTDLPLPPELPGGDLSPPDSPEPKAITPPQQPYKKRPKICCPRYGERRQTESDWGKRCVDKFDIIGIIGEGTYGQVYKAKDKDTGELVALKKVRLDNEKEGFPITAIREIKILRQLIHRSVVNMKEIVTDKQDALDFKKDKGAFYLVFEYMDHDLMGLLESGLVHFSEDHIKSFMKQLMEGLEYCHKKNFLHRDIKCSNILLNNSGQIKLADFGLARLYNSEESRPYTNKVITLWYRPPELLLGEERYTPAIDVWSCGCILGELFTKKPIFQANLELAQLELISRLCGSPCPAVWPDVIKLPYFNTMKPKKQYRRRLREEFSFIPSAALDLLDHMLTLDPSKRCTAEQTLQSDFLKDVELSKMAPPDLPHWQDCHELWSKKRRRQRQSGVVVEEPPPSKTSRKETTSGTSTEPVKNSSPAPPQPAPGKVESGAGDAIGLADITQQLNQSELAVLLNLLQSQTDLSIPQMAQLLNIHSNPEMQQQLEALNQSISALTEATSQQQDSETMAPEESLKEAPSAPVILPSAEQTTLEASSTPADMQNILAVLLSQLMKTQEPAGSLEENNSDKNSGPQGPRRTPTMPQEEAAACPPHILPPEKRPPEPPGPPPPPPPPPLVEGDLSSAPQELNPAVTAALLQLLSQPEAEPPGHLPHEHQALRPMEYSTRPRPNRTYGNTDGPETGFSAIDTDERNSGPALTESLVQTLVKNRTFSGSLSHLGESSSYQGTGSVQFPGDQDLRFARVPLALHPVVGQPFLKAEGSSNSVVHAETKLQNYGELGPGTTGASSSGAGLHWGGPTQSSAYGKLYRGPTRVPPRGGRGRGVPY
T1 sequence (O75909 whole entry partner): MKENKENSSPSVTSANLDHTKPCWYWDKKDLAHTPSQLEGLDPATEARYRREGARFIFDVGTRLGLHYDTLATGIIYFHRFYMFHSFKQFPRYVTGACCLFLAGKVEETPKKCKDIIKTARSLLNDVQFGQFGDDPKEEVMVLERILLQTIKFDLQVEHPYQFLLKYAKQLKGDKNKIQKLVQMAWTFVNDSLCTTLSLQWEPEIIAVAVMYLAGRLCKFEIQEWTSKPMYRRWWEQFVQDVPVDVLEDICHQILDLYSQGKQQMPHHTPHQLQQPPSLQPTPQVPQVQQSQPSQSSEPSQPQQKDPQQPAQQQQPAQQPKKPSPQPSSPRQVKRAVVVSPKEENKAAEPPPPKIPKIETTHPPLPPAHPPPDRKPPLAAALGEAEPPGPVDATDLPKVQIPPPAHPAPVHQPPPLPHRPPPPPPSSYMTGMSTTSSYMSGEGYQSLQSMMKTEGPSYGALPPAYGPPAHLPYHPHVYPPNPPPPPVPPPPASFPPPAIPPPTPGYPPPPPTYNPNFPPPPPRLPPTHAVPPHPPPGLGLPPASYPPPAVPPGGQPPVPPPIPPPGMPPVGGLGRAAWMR
Protocol: In the context of the present invention, the term “DC50 CDK12” refers to the DC50 values obtained according to the assay described in this section (7) herein below, i.e. the DC50 values for the degradation of CDK12.
Plates are then incubated for 24 h at 37° C. in an humidified incubator and fixed with 4% PFA for 10 min. […] Nuclear and cytoplasmic intensity as well as the nuclear/cytoplasmic intensity ratio is determined by automated image analysis using custom generated scripts (MetaXpress). Data is then transferred to Genedata Screener software, normalized to DMSO and control and DC50 values (degrading concentration to achieve 50% reduction of nuclear CDK12 staining intensity relative to controls) are reported.

[3] = test system: MDA-MB-231, human breast cancer cells; test: Proliferation assay MDA-MB-231 (crystal violet, 4 days); conditions: Homo sapiens, MDA-MB-231, 96 h, MDA-MB-231 cells, median, read-out: Prolif-MDA MB-231, IC50-[mol/l] (median)
Protocol: as §1

SMILES | IC50 [1] [nM] | DC50 [2] [nM] | (IC50 CDK12 high ATP) to (Degradation DC50 CDK12) ratio [2] | IC50 [3] [nM]
Cc1cccc2[nH]c(CNc3nc(N4CCN(C)CC4)nc4c(Br)cnn34)nc12 [Example 151, 8-bromo-N-[(4-methyl-1H-benzimidazol-2-yl)methyl]-2-(4-methylpiperazin-1-yl)pyrazolo[1,5-a][1,3,5]triazin-4-amine] | 24.7 | 2.07 | 2046 | 37.2
CN1CCN(c2nc(NCc3nc4c(F)c(F)ccc4[nH]3)n3ncc(Br)c3n2)CC1 [Example 133, 8-bromo-N-[(4,5-difluoro-1H-benzimidazol-2-yl)methyl]-2-(4-methylpiperazin-1-yl)pyrazolo[1,5-a][1,3,5]triazin-4-amine] | 4.41 | 0.846 | 8279 | 4.94
Fc1cccc(-c2nnc(CNc3nc(N4C[C@H]5C[C@@H]4CO5)nc4c(Br)cnn34)[nH]2)c1 [Example 153, 8-bromo-N-{[5-(3-fluorophenyl)-4H-1,2,4-triazol-3-yl]methyl}-2-[(1R,4R)-2-oxa-5-azabicyclo[2.2.1]heptan-5-yl]pyrazolo[1,5-a][1,3,5]triazin-4-amine] | 5.78 | 2.58 | 1143 | 24.4
CN1CCN(c2nc(NCc3nc4c(F)cccc4[nH]3)n3ncc(Br)c3n2)CC1 [Example 126, 8-bromo-N-[(4-fluoro-1H-benzimidazol-2-yl)methyl]-2-(4-methylpiperazin-1-yl)pyrazolo[1,5-a][1,3,5]triazin-4-amine] | 11 | 0.906 | 7539 | 13.1
CN1CCN(c2nc(NCc3nc4cc(Cl)ccc4[nH]3)n3ncc(Br)c3n2)CC1 [Example 163, 8-bromo-N-[(5-chloro-1H-benzimidazol-2-yl)methyl]-2-(4-methylpiperazin-1-yl)pyrazolo[1,5-a][1,3,5]triazin-4-amine] | 1.05 | 0.334 | >17106 | 3.96
Clc1ccc2[nH]c(CNc3nc(N4CCOCC4)nc4c(Br)cnn34)nc2c1 [Example 162, 8-bromo-N-[(5-chloro-1H-benzimidazol-2-yl)methyl]-2-(morpholin-4-yl)pyrazolo[1,5-a][1,3,5]triazin-4-amine] | 1.55 | 0.471 | 2160 | 4.02
CN1CCN(c2nc(NCc3nc4c(F)cccc4[nH]3)n3ncc(C4CC4)c3n2)CC1 [Example 165, 8-cyclopropyl-N-[(4-fluoro-1H-benzimidazol-2-yl)methyl]-2-(4-methylpiperazin-1-yl)pyrazolo[1,5-a][1,3,5]triazin-4-amine] | 4.16 | 0.405 | 25224 | 95
Cc1cccc2[nH]c(CNc3nc(N4CCOCC4)nc4c(Br)cnn34)nc12 [Example 150, 8-bromo-N-[(4-methyl-1H-benzimidazol-2-yl)methyl]-2-(morpholin-4-yl)pyrazolo[1,5-a][1,3,5]triazin-4-amine] | 18.3 | 1.31 | 2033 | 38.9

The remaining lines, values ahead:

IC50 [1] [nM] | DC50 [2] [nM] | (IC50 CDK12 high ATP) to (Degradation DC50 CDK12) ratio [2] | IC50 [3] [nM] | SMILES
164 | 12.6 | 495 | 276 | Brc1cnn2c(NCc3nc4ccccc4[nH]3)nc(N3CCN4CCC[C@@H]4C3)nc12 [Example 149, N-[(1H-benzimidazol-2-yl)methyl]-8-bromo-2-[(8aR)-hexahydropyrrolo[1,2-a]pyrazin-2 (1 H)-yl]pyrazolo[1,5-a][1,3,5]triazin-4-amine]
24.5 | 6.11 | 214 | 37.8 | C[C@H]1CCCCN1c1nc(NCc2nc3ccccc3[nH]2)n2ncc(Br)c2n1 [Example 141, N-[(1H-benzimidazol-2-yl)methyl]-8-bromo-2-[(2S)-2-methylpiperidin-1-yl]pyrazolo[1,5-a][1,3,5]triazin-4-amine]
12.7 | 1.37 | 7939 | 16 | Brc1cnn2c(NCc3nc4ccccc4[nH]3)nc(N3CCNCC3)nc12 [Example 128, N-[(1H-benzimidazol-2-yl)methyl]-8-bromo-2-(piperazin-1-yl)pyrazolo[1,5-a][1,3,5]triazin-4-amine]
31 | 3.82 | 2320 | 43.3 | Brc1cnn2c(NCc3nc4ccccc4[nH]3)nc(N3C[C@@H]4CCCN[C@@H]4C3)nc12 [Example 146, N-[(1H-benzimidazol-2-yl)methyl]-8-bromo-2-[(4aS,7aS)-octahydro-6H-pyrrolo[3,4-b]pyridin-6-yl]pyrazolo[1,5-a][1,3,5]triazin-4-amine]
20.1 | 3.39 | 1800 | 164 | O=S1(=O)CCN(c2nc(NCc3nc4ccccc4[nH]3)n3ncc(Br)c3n2)CC1 [Example 166, 4-(4-{[(1H-benzimidazol-2-yl)methyl]amino}-8-bromopyrazolo[1,5-a][1,3,5]triazin-2-yl)-1 lambda^6-thiomorpholine-1,1-dione]
1.17 | 0.536 | 8313 | 4.24 | Cc1ccc2[nH]c(CNc3nc(N4CCN(C)CC4)nc4c(Br)cnn34)nc2c1 [Example 158, 8-bromo-N-[(5-methyl-1H-benzimidazol-2-yl)methyl]-2-(4-methylpiperazin-1-yl)pyrazolo[1,5-a][1,3,5]triazin-4-amine]
11.3 | 1.62 | 6679 | 23.7 | C[C@@H]1CN(c2nc(NCc3nc4ccccc4[nH]3)n3ncc(Br)c3n2)C[C@H](C)N1 [Example 142, N-(1H-benzimidazol-2-ylmethyl)-8-bromo-2-[(3R,5S)-3,5-dimethylpiperazin-1-yl]pyrazolo[1,5-a][1,3,5]triazin-4-amine]
75.3 | 47.2 | 79 | 174 | CN1CCN(c2nc(NCc3nc4ccccc4[nH]3)n3ncc(Br)c3n2)C(CO)C1 (stereo not shown) [Example 155, [1-[4-(1H-benzimidazol-2-ylmethylamino)-8-bromo-pyrazolo[1,5-a][1,3,5]triazin-2-yl]-4-methyl-piperazin-2-yl]methanol]
310 | 13.9 | 359 | 317 | OCC1CCN1c1nc(NCc2nc3ccccc3[nH]2)n2ncc(Br)c2n1 (stereo not shown) [Example 147, [1-[4-(1H-benzimidazol-2-ylmethylamino)-8-bromo-pyrazolo[1,5-a][1,3,5]triazin-2-yl]azetidin-2-yl]methanol]
223 | 16.8 | 751 | 1620 | N=S1(=O)CCN(c2nc(NCc3nc4ccccc4[nH]3)n3ncc(Br)c3n2)CC1 [Example 145, 4-(4-{[(1H-benzimidazol-2-yl)methyl]amino}-8-bromopyrazolo[1,5-a][1,3,5]triazin-2-yl)-1-imino-1lambda^6-thiomorpholin-1-one]
110 | 10.8 | 1196 | 192 | CCN1CCN(c2nc(NCc3nc4ccccc4[nH]3)n3ncc(Br)c3n2)CC1 [Example 137, N-[(1H-benzimidazol-2-yl)methyl]-8-bromo-2-(4-ethylpiperazin-1-yl)pyrazolo[1,5-a][1,3,5]triazin-4-amine]
